Here are results for 1 compound from publication PMC8037310, “Thrombin-Derived Peptides Potentiate the Activity of Gram-Positive-Specific Antibiotics against Gram-Negative Bacteria” (Molecules, 2021).

Structures are written as SMILES. Bridge positions count the residues as written; N and C are the ends. Square brackets hold non-standard residues; d marks the D form. Peptide text beside a SMILES is read from it. Dab = NCC[C@H](N)C(=O)O Where only a bound is given, the exact number is not on record here.

Holding throughout (assay type): cell-based, Escherichia coli
In experiment [1] the test system is E. coli BW25113. Briefly: microbe, parasite or virus in culture. As to the method:
(§1) All peptides were screened for antimicrobial activity against E. coli BW25113, E. coli ATCC25922, and E. coli W3110. A select group of the peptides was further tested against E. coli mcr-1, E. coli EQASmcr-1 (EQAS 2016 412016126), E. coli EQASmcr-2 (EQAS 2016 KP37), E. coli EQASmcr-3 (EQAS 2017 2013-SQ352), K. pneumoniae ATCC13883, P. aeruginosa ATCC27853, and A. baumannii ATCC17978. The antimicrobial assay was performed according to CLSI guidelines. Bacteria were plated out directly from their glycerol stocks on blood agar plates, incubated overnight at 37 °C, and then kept in the fridge. The blood agar plates were only used for 2 weeks and then replaced.
(§2) One colony from a blood agar plates was inoculated in Lysogeny Broth (LB) at 37 °C until a 0.5 optical density at 600 nm (OD600) was reached (compared to the sterility control of LB). The bacterial suspension was diluted in fresh LB to 2.0 × 10^6 CFU/mL. The serial dilutions were prepared in polypropylene microtiter plates: a stock of the test compounds was prepared with a 2x final concentration in LB. Moreover, 100 µL of the stock was added to the wells of the top row of which 50 µL was used for the serial dilution. The bottom row of each plate was used as the positive (50 µL of LB) and negative controls (100 µL of LB) (6 wells each). Furthermore, 50 µL of the 2.0 × 10^6 CFU/mL bacterial stock was added to each well except for the negative controls, adding up to a total volume of 100 µL per well. The plates were sealed with a breathable seal and incubated for 20 h at 37 °C and 600 rpm.
(§3) Two 96-well plates were required per compound. A serial dilution of the compound was performed on two plates from row A–G using with LB as medium. Row H was filled with 25 µL medium. On a separate plate a negative control (8 wells, 100 μL medium) was prepared. For all concentrations of antibiotic a specific stock was prepared. 25 µL medium was added to the 0 µg/mL antibiotic columns (plate I, column 1–3). Of each antibiotic stock 25 µL was added to three columns to obtain triplicates for every condition. Both plates contained 50 µL in each well to which 50 µL bacterial stock was added (see the protocol of the MIC assays) and the plates were sealed. After incubation for 20 h at 37 °C while shaking, the breathable seals were removed and the density of the bacterial suspensions measured at 600 nm (OD600) using a Tecan Spark plate reader. The OD600 values were transformed to a 2D gradient with the negative control as minimum and the positive control (wells G1, G2, and G3) as maximum in excel. The FICi was calculated using Equation (1) with a FICi ≤ 0.5 indicating synergy. FICi = (MSCa/MICa) + (MSCb/MICb),(1)
(§4) Calculation of the FICi: MSCa = concentration of the […] in combination with the antibiotic that results in the lowest FICi. MICa = MIC of the antibiotic without synergist (row G). MSCb = concentration of the synergist in combination with the antibiotic that results in the lowest FICi. MICb = MIC of the synergist itself (Column 1–3, plate I).

In experiment [2] the test system is E. coli BW25113. Briefly: Membrane permeability assay using N-phenylnaphthalen-1-amine (NPN). The settings on record: at […]; 60 min incubation, λex 355 nm, λem 420 nm, relative to 100 µg/mL colistin; n = 3 technical replicates. How it is done:
Figure 7 Permeabilization assay of E. coli BW25113 using N-Phenyl-1-naphthylamine as fluorescent probe. The read-out was performed after 60 min of incubation using a plate reader with λex 355 nm and λem 420 nm. The N-phenyl-napthalen-1-amine (NPN) uptake values shown are relative to the uptake signal obtained upon treating the cells with 100 µg/mL colistin as previously reported. Error bars represent the standard deviation based on n = 3 technical replicates. A read-out was also performed after 10 min of incubation (see Supplementary data, Figure S16).
This assay was adapted from a protocol described in literature. Bacteria were inoculated overnight at 37 °C in LB, diluted the next day 50× in LB and grown to OD600 of 0.5. The bacterial suspension was then centrifuged for 10 min at 1000× g at 25 °C. The pellet of bacteria was resuspended in 5 mM HEPES buffer containing 20mM glucose to a final concentration of OD600 of 1.0. […] After 10 and 60 min, the plate was measured using Tecan plate reader with λex 355 nm ±20 nm and λem 420 nm ± 20 nm. The fluorescence values obtained were then transformed into a NPN uptake percentage using the following Equation (2):NPN uptake (%) = (Fobs − F0)/(F100 − F0) × 100%,(2)
Equation (2) consists of an observed value of fluorescence (Fobs), which is corrected for background using the negative control (F0). […]

Experiment [3] relates to E. coli BW25113.
Experiment [4] deals with E. coli BW25113. The experiment can be described thus: microbe, parasite or virus in culture. How it is done:
as §1, §2, §3, §4
The source holds these as a separate data set.

The test system of experiment [5] is E. coli BW25113. Briefly: Checkerboard assay with erythromycin.

Take `CC(C)C[C@@H]1NC(=O)[C@@H](Cc2ccccc2)NC(=O)[C@H](CCN)NC(=O)[C@@H](NC(=O)[C@H](CCN)NC(=O)[C@@H](N)[C@@H](C)O)CCNC(=O)[C@H]([C@@H](C)O)NC(=O)[C@H](CCN)NC(=O)[C@H](CCN)NC1=O` [PMBN, polymyxin B nonapeptide, reference compound] (H-T[Dab][Dab][Dab][dF]L[Dab][Dab]T; lactam 3-C (inferred); N-terminus assumed): the MICpeptide is above 200 µg/mL in the experiment on E. coli BW25113 [1] (synergist alone, E. coli BW25113, from checkerboard with vancomycin) and above 200 µg/mL with E. coli BW25113 [4] (synergist alone, E. coli BW25113, from checkerboard with novobiocin). Besides, the MSCpeptide in the experiment with E. coli BW25113 [1] (synergist concentration in the combination with vancomycin giving the lowest FICi, E. coli BW25113) was determined as 12.5 µg/mL; with E. coli BW25113 [4] (synergist concentration in the combination with novobiocin giving the lowest FICi, E. coli BW25113), 12.5 µg/mL. For the same compound, in the experiment on E. coli BW25113 [1] (vancomycin concentration in the combination giving the lowest FICi, E. coli BW25113), the MSCvanco is 50 µg/mL. In the experiment with E. coli BW25113 [2], the “OM permeabilization (NPN uptake)” value was “ca. 80%”. The MSCrif in the experiment on E. coli BW25113 [3] (rifampicin concentration in the combination giving the lowest FICi, E. coli BW25113) stood at 0.25 µg/mL. Further, in the experiment with E. coli BW25113 [3] (synergist alone, E. coli BW25113, from checkerboard with rifampicin), the MICpep is above 200 µg/mL. For the same compound, the MSCpep with E. coli BW25113 [3] (synergist concentration in the combination with rifampicin giving the lowest FICi, E. coli BW25113) came to 12.5 µg/mL. For the same compound, in the experiment with E. coli BW25113 [4] (novobiocin concentration in the combination giving the lowest FICi, E. coli BW25113), the MSCnovo amounted to 6.25 µg/mL. For the same compound, in the experiment on E. coli BW25113 [5] (BW25113, 20 h), the FICi was found to be 0.125. In the experiment with E. coli BW25113 [5] (erythromycin concentration in the combination with the synergist giving the lowest FICi, E. coli BW25113), the MSCery came to 12.5 µg/mL. Besides, the “MIC of the peptide (MICpep)” value in the experiment with E. coli BW25113 [5] (synergist alone, E. coli BW25113, LB, 20 h 37 °C, from checkerboard with erythromycin) is above 200 µg/mL. Moreover, in the experiment on E. coli BW25113 [5] (synergist concentration in the combination with erythromycin giving the lowest FICi, E. coli BW25113, LB, 20 h 37 °C, OD600), the “MSCpeptide, minimum synergistic concentration” value turned out to be 25 µg/mL.
